Values joined by “and” are separate entries in the source; they are usually repeats but may differ in a detail not shown here. Equal entries are not always repeated.
System: human primary hepatocytes
Test: Metabolic disposition of [^14C]-Compound 1 and [^14C]-2′-C-methyl guanosine in human primary hepatocytes (incubation medium, cellular extracts, nucleotide levels)
Assay type: in vitro ADME
Conditions: for Major metabolites observed in cellular extracts (% of total radioactivity): human hepatocytes Hu775, 1 μM [^14C]-2′-C-methyl guanosine
Method: Primary hepatocytes: Freshly isolated cells from animal and human liver were obtained in suspension on ice. Cells were pelleted by centrifugation at 70-75×g (rat) or 95-90×g (monkey and human) and resuspended at 0.8 million cells per mL of platting medium (William's E supplemented with 5% FBS, 0.5% penicillin-streptomycin, 1% L-glutamine, 4 μg/mL insulin and 1 μM dexamethasone). Multi-well collagen I-coated plates (rat tail collagen type I; 12- or 6-well) were then seeded by addition of 1 mL (12-well; 0.8 million cells/well) or 2 mL (6-well; 1.6 million cells/well) of cell suspension. The plates were gently shaken to evenly distribute the cells and placed in an incubator at 37° C. for approximately 4 to 6 hours to allow cells to attach. Once cells were attached, the platting medium was removed and replaced with hepatocyte culture medium (William's E supplemented with penicillin-streptomycin, 1% L-glutamine, 1% insulin-transferrin-selenium and 0.1 μM dexamethasone). Cells were left overnight in an incubator at 37° C. to acclimatize to culture and the medium.
Hepatocyte incubations with radiolabeled Compound 1 and 2′-C-methyl guanosine, both labeled in the C-8 position of the guanine moiety, were conducted at a final volume of 2.0 mL hepatocyte culture medium/well ([…]). Culture medium from overnight incubation of cells was removed and replaced with fresh medium, pre-warmed to 37° C., containing 1 or 10 μM [^14C]-Compound 1 ([…]) or [^14C]-2′-C-methyl guanosine (127 DPM/μmol) from a stock solution in DMSO (final DMSO concentration was 0.1%) or 50% ethanol (final ethanol concentration was 0.2%). After 1, 4, 8 and 24 hours, 0.5-1.0 mL of incubation medium was removed and stored at −20° C. until analysis (described below). The remaining medium was discarded and cell monolayers were carefully washed two times with ice-cold PBS. Following the last wash, all PBS was carefully removed and 1.0 mL of extraction solution (ice-cold 70% methanol) added. Cells were scrapped off and suspended in the extraction solution, transferred to 2 mL polypropylene microfuge tubes and intracellular contents extracted overnight at −20° C.
Preliminary identification of putative metabolites was conducted by comparing the retention time of observed metabolites in incubation medium and cellular extracts with retention times obtained with chemically synthesized standards using the chromatography conditions described below. Further identification of 2′-C-methyl guanosine nucleotides (mono-, di- and triphosphate) was carried out by incubating cellular extract samples with alkaline phosphatase (10 units for 60 min at 37° C.) and comparing the HPLC retention times of the resulting nucleosides with that of authentic 2′-C-methyl guanosine.
Cellular extracts were prepared by centrifugation at 16,000 RCF using an Eppendorf microcentrifuge (Eppendorf, Model 5415D) for 10 min to remove cellular debris. An aliquot of 5-10 μL of the supernatant was added to 5 mL of EcoLite™ (MP, Irvine, Calif.) liquid scintillation cocktail and radioactivity measured by liquid scintillation counting (LSC) using a Beckman Coulter LS6500 multipurpose liquid scintillation counter (Beckman Instruments, Fullerton, Calif.). The remaining sample was then dried using a Labconco refrigerated centrivap concentrator (Labconco, Kansas City, Mo.). Dry extracts were reconstituted in 120 μL of HPLC-grade water and centrifuged at 16,000 RCF using an Eppendorf microcentrifuge for 10 min. Prior to HPLC analysis (described below), radioactivity of the concentrated extracts was measured by LSC using 5 μL aliquots. Extraction recovery was then determined by comparing total radioactivity in extracts before and after drying. The remaining extract was then analyzed by HPLC with online radioactivity detection using a Flow Scintillation Analyzer Radiomatic™ 515TR. Radioactivity in the separated components was quantified by integrating the peaks using Flo-One™ Software (Perkin Elmer Life Sciences). […]

[1] = human hepatocytes (Hu759, Hu775), 10 μM [^14C]-Compound 1, 1 h
[2] = human hepatocytes (Hu759, Hu775), 10 μM [^14C]-Compound 1, 4 h
[3] = human hepatocytes (Hu759, Hu775), 10 μM [^14C]-Compound 1, 24 h
[4] = human hepatocytes (Hu775), 1 μM [^14C]-Compound 1, 1 h
[5] = human hepatocytes (Hu775), 1 μM [^14C]-Compound 1, 8 h
[6] = human hepatocytes (Hu775), 1 μM [^14C]-Compound 1, 24 h
[7] = human hepatocytes (Hu759, Hu775), 10 μM [^14C]-Compound 1, 8 h
[8] = human hepatocytes (Hu775), 1 μM [^14C]-Compound 1, 0 h
[9] = human hepatocytes (lots Hu759, Hu775), 10 μM [^14C]-Compound 1, 0 h
[10] = human hepatocytes (lots Hu759, Hu775), 10 μM [^14C]-Compound 1, 4 h
[11] = human hepatocytes (lots Hu759, Hu775), 10 μM [^14C]-Compound 1, 8 h
[12] = human hepatocytes (lots Hu759, Hu775), 10 μM [^14C]-Compound 1, 24 h

Row | metabolites observed in cellular extracts (% of total radioactivity) [1] | metabolites observed in cellular extracts (% of total radioactivity) [3] | metabolites observed in cellular extracts (% of total radioactivity) [4] | metabolites observed in cellular extracts (% of total radioactivity) [5] | metabolites observed in cellular extracts (% of total radioactivity) [6] | metabolites observed in cellular extracts (% of total radioactivity) [7] | metabolites observed in medium (% of total radioactivity) [8] | metabolites observed in medium (% of total radioactivity) [4] | metabolites observed in medium (% of total radioactivity) [5] | metabolites observed in medium (% of total radioactivity) [6] | metabolites observed in medium (% of total radioactivity) [9] | metabolites observed in medium (% of total radioactivity) [10] | metabolites observed in medium (% of total radioactivity) [11] | metabolites observed in medium (% of total radioactivity) [12] | Compound | metabolites observed in cellular extracts (% of total radioactivity) [2] | also measured
1 | 3.69% and 3.75% | 10.3% and 9.06% | BLD^a | 4.34% | 9.05% | 7.52% and 5.89% | BLD^a | BLD | 9.20% and 9.22% | 39% and 38.7% | BLD^b and BLD | 1.7% and 1.6% | 4.6% and 7% | 22.1% and 29% | C[C@@]1(O)[C@H](O)[C@@H](CO)O[C@H]1n1cnc2c(=O)[nH]c(N)nc21 [2′-C-methyl guanosine, 9-(2-C-methyl-β-D-ribofuranosyl)guanine, reference compound] | 4.20% and 3.10% | metabolites observed in cellular extracts (% of total radioactivity) (human hepatocytes (Hu759, Hu775), 10 μM [^14C]-2′-C-methyl guanosine, 1 h): 97.1% and 94.9%; metabolites observed in cellular extracts (% of total radioactivity) (human hepatocytes (Hu759, Hu775), 10 μM [^14C]-2′-C-methyl guanosine, 4 h): 87.3% and 77.3%; metabolites observed in cellular extracts (% of total radioactivity) (human hepatocytes (Hu759, Hu775), 10 μM [^14C]-2′-C-methyl guanosine, 8 h): 73.9% and 61.4%; metabolites observed in cellular extracts (% of total radioactivity) (human hepatocytes (Hu759, Hu775), 10 μM [^14C]-2′-C-methyl guanosine, 24 h): 52.4% and 40.2%; metabolites observed in medium (% of total radioactivity) (human hepatocytes (lots Hu759, Hu775), 10 μM [^14C]-Compound 1, 1 h): BLD and BLD^a; Major metabolites observed in cellular extracts (% of total radioactivity) (1 h): 94.6 % of total radioactivity; Major metabolites observed in cellular extracts (% of total radioactivity) (8 h): 65.8 % of total radioactivity; Major metabolites observed in cellular extracts (% of total radioactivity) (24 h): 41.3 % of total radioactivity
2 | 6.50% and 2.30% | BLD | 4.94% | BLD | BLD | BLD | 2.22% | BLD | 2.27% | 1.7% and 1.72% | 2.7% and 1.1% | 1.8% and 0.8% | 2.6% and 0.6% | 2.7% and 0.7% | C[C@@]1(O)[C@H](O)[C@@H](COP(=O)(O)NCc2ccccc2)O[C@H]1n1cnc2c(=O)[nH]c(N)nc21 [Compound 2, [(2R)-2-methyl-β-D-ribofuranosyl]guanine-N-benzylaminyl-5′-monophosphate] |  | 

Row | Compound | metabolites observed in cellular extracts (% of total radioactivity) [1] | metabolites observed in cellular extracts (% of total radioactivity) [3] | metabolites observed in cellular extracts (% of total radioactivity) [4] | metabolites observed in cellular extracts (% of total radioactivity) [5] | metabolites observed in cellular extracts (% of total radioactivity) [6] | metabolites observed in cellular extracts (% of total radioactivity) [7] | metabolites observed in medium (% of total radioactivity) [8] | metabolites observed in medium (% of total radioactivity) [4] | metabolites observed in medium (% of total radioactivity) [5] | metabolites observed in medium (% of total radioactivity) [6] | metabolites observed in medium (% of total radioactivity) [9] | metabolites observed in medium (% of total radioactivity) [10] | metabolites observed in medium (% of total radioactivity) [11] | metabolites observed in medium (% of total radioactivity) [12] | metabolites observed in cellular extracts (% of total radioactivity) [2] | also measured
3 | CC(C)(CO)C(=O)SCCOP(=O)(NCc1ccccc1)OC[C@H]1O[C@@H](n2cnc3c(=O)[nH]c(N)nc32)[C@](C)(O)[C@@H]1O (mixture of isomers) [Compound 1, 3-hydroxy-2,2-dimethyl-thiopropionic acid S-(2-{[(2R,3R,4R,5R)-5-(2-amino-6-oxo-1,6-dihydro-purin-9-yl)-3,4-dihydroxy-4-methyl-tetrahydro-furan-2-ylmethoxy]-benzylamino-phosphoryloxy}-ethyl) ester] | 31.1% and 23.9% | 1.38% and 1.59% | 19.9% | 4.07% | 2.78% |  |  |  |  |  |  |  |  |  | 8.48% and 6.96% | decrease in Compound 1 medium levels (human hepatocytes, 10 μM, 24 hours): 38%; % Residual [^14C]-Compound 1 in incubation medium (human primary hepatocytes (n=1), 1 μM, 0 h): 97%; % Residual [^14C]-Compound 1 in incubation medium (human primary hepatocytes (n=1), 1 μM, 1 h): 100%; % Residual [^14C]-Compound 1 in incubation medium (human primary hepatocytes (n=1), 1 μM, 8 h): 78%; % Residual [^14C]-Compound 1 in incubation medium (human primary hepatocytes (n=1), 1 μM, 24 h): 51%; % Residual [^14C]-Compound 1 in incubation medium (human primary hepatocytes (n=2), 10 μM, 0 h): 97% and 98%; % Residual [^14C]-Compound 1 in incubation medium (human primary hepatocytes (n=2), 10 μM, 1 h): 94% and 97%; % Residual [^14C]-Compound 1 in incubation medium (human primary hepatocytes (n=2), 10 μM, 4 h): 91%; % Residual [^14C]-Compound 1 in incubation medium (human primary hepatocytes (n=2), 10 μM, 8 h): 84% and 79%; % Residual [^14C]-Compound 1 in incubation medium (human primary hepatocytes (n=2), 10 μM, 24 h): 63% and 60%
